Non-standard residues stand in square brackets, D forms with d. Residues, ends and D or L forms follow the SMILES beside them. pY = N[C@@H](Cc1ccc(OP(=O)(O)O)cc1)C(=O)O
How the values were obtained:
Grb2-SH2 domain [1] = biological target: T1, Grb2-SH2 domain (Homo sapiens, UniProt P62993); experiment: 2D 1H double-quantum (DQ) NMR screening of compound mixtures with and without the protein; type: binding; conditions: 25°C, pH 6.2; for identification as ligand by comparison of 2D DQ spectra and 2D DQ difference spectrum: mixture 2, 300 µM each compound, 50 µM protein (6:1)
T1 construct: The SH2 domain of Grb2 was expressed in E. coli as GST fusion proteins; GST (cleaved yes); made in house; host or cells: E. coli
Protocol: The feasibility of the invention in identifying ligands was tested with mixtures of compounds against the Grb2-SH2 domain. […] Figure 2 illustrates the DQ fingerprint region of a compound mixture (mixture 1) recorded with the pulse sequence of Figure 1a in the absence (a) and in the presence (b) of the protein. […] The NH protein resonances are not visible in Figure 2 (b) due to their short T (SQ)/(2) [formula] and T^DQ and the lower protein concentration (50 µM). The protein aromatic resonances have a longer T (SQ)/(2) [formula] and T^DQ compared to the amide resonances and their presence in the DQ spectrum may interfere with the observation of the ligand signals. Figure 3(a) illustrates the aromatic region of the 2D relaxation weighted DQ spectrum for mixture 1. Figures 3 (b) and (c) depict the same spectral region of the 2D DQ and relaxation weighted DQ spectrum of mixture 1 in the presence of the Grb2 SH2 domain, respectively. […] The large linewidth of all the protein resonances and the antiphase character of the DQ multiplets along ω2 results in complete cancellation of the positive and negative lobes. […] Only the compound resonances that display changes in intensity or chemical shift in the presence of the protein will be visible in the difference spectrum.
All the spectra were acquired at 25°C with the pulse sequences of Figure 1 using a Varian Inova 600 MHz spectrometer equipped with a 5 mm triple-resonance inverse probe and actively shielded x, y, and z- gradient coils. The DQ spectra were collected using 8 to 32 transients for each of the 256 t1 increments (128 t1 values for both the echo and antiecho pathway selections) and with 2048 points in t2. The data were multiplied with a cosine window function in both dimensions prior to the Fourier transformation.
The excitation DQ period τ was 42 ms long and the angle β of the detection pulse was set to 45° and 135° for the antiecho and echo coherence pathway selection, respectively. The coherence selection gradients G1 to G3 were set at the magic angle using only the x and z components of the gradients. The first two PFGs applied at the beginning and end of the excitation double-quantum period were weak gradients for radiation damping suppression. The 2D spectral differencing was performed with the software provided by Varian. The scaling factor used in the examples reported here was -1. However it can be adjusted manually for allowing small variations in concentration of the protein-ligand mixture and ligand mixture solutions.

Grb2-SH2 domain [2] = experiment: 2D 1H double-quantum NMR screening of compound mixtures for ligand binding; conditions: mixture 2, each compound 300 µM, protein 50 µM (6:1), 25°C, pH 6.2
Source text: From a practical point of view, the steps involved in the detection of binding are preferably the following: • a) mixing together from 1 to n chemical compounds not interacting with each other; • b) recording a two-dimensional ^1H DQ or DQC (refocussed or not) relaxation weighted DQ spectrum (preferentially version with PFG) for the said compound mixture in the absence of the target biomolecule; • c) mixing the said compound mixture with the target biomolecule where each of the molecules comprising the mixture is preferably present at a molar ratio to the target biomolecule of about 1:1 to about 20:1 • d) recording a two-dimensional ^1H DQ or DQC (refocussed or not) relaxation weighted DQ spectrum (preferentially version with PFG) for the said compound mixture in the presence of the target biomolecule; • e) comparing the spectra recorded in steps b) and d) to detect which, if any of the chemical entities of the mixture, has interacted with the target biomolecule; and, optionally • f) recording a two-dimensional ^1H DQ or DQC (refocussed or not) relaxation weighted DQ spectrum (preferentially version with PFG) for each of the compounds which have been detected in step (e) above, with and without the target protein.
The feasibility of the invention in identifying ligands was tested with mixtures of compounds against the Grb2-SH2 domain. […]

T1 sequence (P62993 60-152 limits assumed): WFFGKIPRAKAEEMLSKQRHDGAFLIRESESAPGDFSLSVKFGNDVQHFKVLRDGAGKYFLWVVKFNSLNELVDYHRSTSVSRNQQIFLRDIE

identification as ligand by comparison of 2D DQ spectra and 2D DQ difference spectrum (Grb2-SH2 domain [1]) | Molecule | further results
 | c1ccc2[nH]ccc2c1 [Indole, indole] | identification as ligand (2D DQ spectra and 2D DQ difference spectrum with/without protein) (Grb2-SH2 domain [2]): do not interact with the protein
 | Ac-(N-Me)Phe(p-CH2PO3H2)-Val-Asn-NH-CH2-CH(CH3)2 | identification as ligand by comparison of 2D DQ spectra (Grb2-SH2 domain [1]; mixture 1, 100 µM each compound, 50 µM protein (2:1)): ligand for Grb2-SH2
potent ligand | Ac-Tyr(PO3H2)-Val-NH-CH2-CH2-CONH2 | 
do not interact with the protein | Ac-Tyr-Val-Asn-Val-OH (Ac-YVNV-OH) | 

Molecule | identification as ligand by comparison of 2D DQ spectra and 2D DQ difference spectrum (Grb2-SH2 domain [1]) | further results
CC(=O)N[C@@H](Cc1ccc(OP(=O)(O)O)cc1)C(=O)N[C@H](C(N)=O)C(C)C [Ac-Tyr(PO3H2)-Val-NH2] (Ac-[pY]-Val-NH2) | potential very weak ligand | identification as ligand by comparison of 2D DQ spectra and 2D DQ difference spectrum (Grb2-SH2 domain [1]; listed as compound B): possible weak interaction
